Assay results published in US7799809B2, “Carboxamide compounds and their use as calpain inhibitors” (Abbott GmbH & Co. KG, priority 2006, dated 2010).

Tests used:
Assay type in all cases: biochemical
[1] = biological target: T1, cathepsin L (Homo sapiens, UniProt P07711); experiment: Cathepsin L enzyme inhibition in vitro (kinetic fluorescence assay); conditions: cathepsin L isolated from human liver vs calpain I
T1 construct: cathepsin L—isolated from human liver (Calbiochem #219402); purchased Calbiochem 219402; host or cells: human liver (tissue-derived)
T1 sequence (P07711 114-333): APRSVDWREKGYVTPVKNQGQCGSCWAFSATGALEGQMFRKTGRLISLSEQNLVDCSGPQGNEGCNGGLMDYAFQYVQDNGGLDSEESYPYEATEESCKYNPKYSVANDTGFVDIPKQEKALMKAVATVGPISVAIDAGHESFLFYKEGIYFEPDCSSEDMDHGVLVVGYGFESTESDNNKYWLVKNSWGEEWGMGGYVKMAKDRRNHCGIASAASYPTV
How it was run: (§1)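 Cathepsin B (0.25 nM, human liver) with 100 μM Z-Phe-Arg-AMC; L (1 nM, human liver) with 2 μM Z-Phe-Arg-AMC; S (0.5 nM, recombinant) with 20 μM Z-Val-Val-Arg-AMC. pH 6.0 MES buffer, 2.5 mM L-cysteine, room temperature. Kinetic fluorescence (ex 390/em 460 nm); apparent Ki from IC50 by Cheng-Prusoff.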

[2] = biological target: T2, cathepsin K (Homo sapiens, UniProt P43235); experiment: Cathepsin K enzyme inhibition in vitro (kinetic fluorescence assay); conditions: cathepsin K activated from recombinant human procathepsin K vs calpain I
T2 construct: purchased Calbiochem 342001; host or cells: E. coli
T2 sequence (P43235 115-329): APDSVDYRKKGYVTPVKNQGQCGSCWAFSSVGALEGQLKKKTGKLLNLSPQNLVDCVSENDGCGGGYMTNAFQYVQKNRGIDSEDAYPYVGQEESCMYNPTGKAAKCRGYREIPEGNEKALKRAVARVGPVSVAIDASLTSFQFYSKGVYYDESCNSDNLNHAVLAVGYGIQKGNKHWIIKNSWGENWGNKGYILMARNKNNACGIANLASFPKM

[3] = biological target: T3, cathepsin S (Homo sapiens, UniProt P25774); experiment: Cathepsin S enzyme inhibition in vitro (kinetic fluorescence assay); conditions: recombinant human cathepsin S vs calpain I
T3 construct: purchased Calbiochem 219343; host or cells: E. coli
T3 sequence (P25774 115-331): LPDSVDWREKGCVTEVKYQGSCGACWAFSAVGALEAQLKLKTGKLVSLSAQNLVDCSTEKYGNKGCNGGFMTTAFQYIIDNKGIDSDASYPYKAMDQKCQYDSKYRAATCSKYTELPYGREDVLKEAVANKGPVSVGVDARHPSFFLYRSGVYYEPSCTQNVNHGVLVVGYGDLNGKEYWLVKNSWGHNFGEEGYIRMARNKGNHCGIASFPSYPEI
How it was run: as §1

[4] = biological target: T4, cathepsin B (Homo sapiens, UniProt P07858); experiment: Cathepsin B enzyme inhibition in vitro (kinetic fluorescence assay); conditions: cathepsin B isolated from human liver vs calpain I
T4 construct: cathepsin B—isolated from human liver (Calbiochem #219362); purchased Calbiochem 219362; host or cells: human liver (tissue-derived)
How it was run: as §1

SMILES | Sel cat. L: Ki(cathepsin L)/Ki(calpain) ratio [1] | Sel cat. K: Ki(cathepsin K)/Ki(calpain) ratio [2] | Sel cat. S: Ki(cathepsin S)/Ki(calpain) ratio [3] | Sel cat. B: Ki(cathepsin B)/Ki(calpain) ratio [4]
COc1ccc(-c2ccn(-c3ncccc3C(=O)NC(Cc3ccccc3)C(=O)C(N)=O)n2)c(OC)c1 (stereo not drawn) [Example 117, N-[3-Amino-2,3-dioxo-1-(phenylmethyl)propyl]-2-{3-[2,4-bis(methyloxy)phenyl]-1H-pyrazol-1-yl}pyridine-3-carboxamide] | ++ (++ means a Ki(cathepsin L)/Ki(calpain) ratio of ≧50) | ++ (++ means a Ki(cathepsin K)/Ki(calpain) ratio of ≧30) | ++ (++ means a Ki(cathepsin S)/Ki(calpain) ratio of ≧100) | ++ (++ means a Ki(cathepsin B)/Ki(calpain) ratio of ≧30)
NC(=O)C(=O)C(Cc1ccccc1)NC(=O)c1cccnc1-n1ccc(-c2ccc(C(F)(F)F)cc2)n1 (stereo not drawn) [Example 60, N-(3-Amino-1-benzyl-2,3-dioxopropyl)-2-{3-[4-(trifluoromethyl)phenyl]-1H-pyrazol-1-yl}nicotinamide] | ++ (++ means a Ki(cathepsin L)/Ki(calpain) ratio of ≧50) | + (+ means 10≦Ki(cathepsin K)/Ki(calpain)<30) | + (+ means 50≦Ki(cathepsin S)/Ki(calpain)<100) | + (+ means 10≦Ki(cathepsin B)/Ki(calpain)<30)
NC(=O)C(=O)C(Cc1ccccc1)NC(=O)c1cccnc1-n1ccc(-c2ccc(N3CCOCC3)cc2F)n1 (stereo not drawn) [Example 102, N-[3-Amino-2,3-dioxo-1-(phenylmethyl)propyl]-2-[3-(2-fluoro-4-morpholin-4-ylphenyl)-1H-pyrazol-1-yl]pyridine-3-carboxamide] | ++ (++ means a Ki(cathepsin L)/Ki(calpain) ratio of ≧50) | ++ (++ means a Ki(cathepsin K)/Ki(calpain) ratio of ≧30) | ++ (++ means a Ki(cathepsin S)/Ki(calpain) ratio of ≧100) | + (+ means 10≦Ki(cathepsin B)/Ki(calpain)<30)
NC(=O)C(=O)C(Cc1ccccc1)NC(=O)c1cccnc1-n1ccc(-c2ccccc2C(F)(F)F)n1 (stereo not drawn) [Example 72, N-(3-Amino-1-benzyl-2,3-dioxopropyl)-2-{3-[2-(trifluoromethyl)phenyl]-1H-pyrazol-1-yl}nicotinamide] | + (+ means 30≦Ki(cathepsin L)/Ki(calpain)<50) | + (+ means 10≦Ki(cathepsin K)/Ki(calpain)<30) | ++ (++ means a Ki(cathepsin S)/Ki(calpain) ratio of ≧100) | + (+ means 10≦Ki(cathepsin B)/Ki(calpain)<30)
COc1ccc(CC(NC(=O)c2cccnc2-n2ccc(-c3ccc(Cl)cc3Cl)n2)C(=O)C(N)=O)cc1 (stereo not drawn) [Example 98, N-(3-Amino-1-{[4-(methyloxy)phenyl]methyl}-2,3-dioxopropyl)-2-[3-(2,4-dichlorophenyl)-1H-pyrazol-1-yl]pyridine-3-carboxamide] | ++ (++ means a Ki(cathepsin L)/Ki(calpain) ratio of ≧50) | ++ (++ means a Ki(cathepsin K)/Ki(calpain) ratio of ≧30) | ++ (++ means a Ki(cathepsin S)/Ki(calpain) ratio of ≧100) | ++ (++ means a Ki(cathepsin B)/Ki(calpain) ratio of ≧30)
NC(=O)C(=O)C(Cc1ccccc1)NC(=O)c1cccnc1-n1ccc(-c2ccccc2OC(F)F)n1 (stereo not drawn) [Example 166, N-[3-Amino-2,3-dioxo-1-(phenylmethyl)propyl]-2-(3-{2-[(difluoromethyl)oxy]phenyl}-1H-pyrazol-1-yl)pyridine-3-carboxamide] | ++ (++ means a Ki(cathepsin L)/Ki(calpain) ratio of ≧50) | ++ (++ means a Ki(cathepsin K)/Ki(calpain) ratio of ≧30) | ++ (++ means a Ki(cathepsin S)/Ki(calpain) ratio of ≧100) | + (+ means 10≦Ki(cathepsin B)/Ki(calpain)<30)
